Paper PMC5428509, “Irreversible inhibition of BTK kinase by a novel highly selective inhibitor CHMFL-BTK-11 suppresses inflammatory response in rheumatoid arthritis model” (Scientific Reports, 2017)

How the values were obtained:
Assay in all cases: biochemical
Set-up in all cases: KinomeScan competition binding panel (DiscoveRx), percent of control at 1 uM
Settings in all cases: read-out: Percent Control
[1] = target: ALK(L1196M) (Homo sapiens, UniProt Q9UM73, L1196M)
Text: (§1) In order to further confirm the binding mode, we then tested the compounds in the BTK wild-type (wt) and BTK C481S mutant with immunoblotting by looking at the BTK Y551 auto-phosphorylation. […] In addition, a covalent bond was preferred to form between the […] acrylamide and Cys-481 near the hinge binding area, which further confirmed its irreversible binding mode (Fig. 1d). We next investigated CHMFL-BTK-11′s selectivity profile in 456 kinases/mutants with KinomeScan^TM technology.

[2] = target: T1, CDC2L2 (Homo sapiens, UniProt Q9UQ88)
T1 construct: gene CDK11A
Text: as §1

[3] = target: CDK8 (Homo sapiens, UniProt P49336)
Text: as §1

[4] = target: CDKL3 (Homo sapiens, UniProt Q8IVW4)
Text: as §1

[5] = target: CSNK1G3 (Homo sapiens, UniProt Q9Y6M4)
Text: as §1

[6] = target: GSK3A (Homo sapiens, UniProt P49840)
Text: as §1

[7] = target: T2, HPK1 (Homo sapiens, UniProt Q92918)
T2 construct: gene MAP4K1
Text: as §1

[8] = target: T3, ICK (Homo sapiens, UniProt Q9UPZ9)
T3 construct: gene CILK1
Text: as §1

[9] = target: T4, IKK-beta (Homo sapiens, UniProt O14920)
T4 construct: gene IKBKB
T4 sequence (O14920 whole entry): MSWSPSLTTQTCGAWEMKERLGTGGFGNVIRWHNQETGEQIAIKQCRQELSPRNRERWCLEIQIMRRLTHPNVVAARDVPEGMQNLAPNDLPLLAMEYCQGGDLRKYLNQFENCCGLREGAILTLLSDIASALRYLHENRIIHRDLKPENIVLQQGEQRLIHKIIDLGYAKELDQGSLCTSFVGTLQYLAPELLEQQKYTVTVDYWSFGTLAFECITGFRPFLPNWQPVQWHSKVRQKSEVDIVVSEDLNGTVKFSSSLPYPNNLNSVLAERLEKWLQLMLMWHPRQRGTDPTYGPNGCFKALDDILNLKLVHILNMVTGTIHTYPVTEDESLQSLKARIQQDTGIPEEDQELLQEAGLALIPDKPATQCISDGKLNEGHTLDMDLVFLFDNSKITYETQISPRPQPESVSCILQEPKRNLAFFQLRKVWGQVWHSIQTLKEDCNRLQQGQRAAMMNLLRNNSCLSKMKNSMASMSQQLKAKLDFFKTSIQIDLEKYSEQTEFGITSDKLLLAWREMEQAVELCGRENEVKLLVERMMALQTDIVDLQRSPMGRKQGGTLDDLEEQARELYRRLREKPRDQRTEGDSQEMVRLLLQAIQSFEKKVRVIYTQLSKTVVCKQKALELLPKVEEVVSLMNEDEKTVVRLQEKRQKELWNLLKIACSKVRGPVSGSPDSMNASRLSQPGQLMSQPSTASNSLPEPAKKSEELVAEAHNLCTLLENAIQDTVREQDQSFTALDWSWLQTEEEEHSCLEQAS
Text: as §1

[10] = target: IRAK1 (Homo sapiens, UniProt P51617)
Text: as §1

[11] = target: MAST1 (Homo sapiens, UniProt Q9Y2H9)
Text: as §1

[12] = target: MKNK2 (Homo sapiens, UniProt Q9HBH9)
Text: as §1

[13] = target: T5, MRCKB (Homo sapiens, UniProt Q9Y5S2)
T5 construct: gene CDC42BPB
T5 sequence (Q9Y5S2 whole entry): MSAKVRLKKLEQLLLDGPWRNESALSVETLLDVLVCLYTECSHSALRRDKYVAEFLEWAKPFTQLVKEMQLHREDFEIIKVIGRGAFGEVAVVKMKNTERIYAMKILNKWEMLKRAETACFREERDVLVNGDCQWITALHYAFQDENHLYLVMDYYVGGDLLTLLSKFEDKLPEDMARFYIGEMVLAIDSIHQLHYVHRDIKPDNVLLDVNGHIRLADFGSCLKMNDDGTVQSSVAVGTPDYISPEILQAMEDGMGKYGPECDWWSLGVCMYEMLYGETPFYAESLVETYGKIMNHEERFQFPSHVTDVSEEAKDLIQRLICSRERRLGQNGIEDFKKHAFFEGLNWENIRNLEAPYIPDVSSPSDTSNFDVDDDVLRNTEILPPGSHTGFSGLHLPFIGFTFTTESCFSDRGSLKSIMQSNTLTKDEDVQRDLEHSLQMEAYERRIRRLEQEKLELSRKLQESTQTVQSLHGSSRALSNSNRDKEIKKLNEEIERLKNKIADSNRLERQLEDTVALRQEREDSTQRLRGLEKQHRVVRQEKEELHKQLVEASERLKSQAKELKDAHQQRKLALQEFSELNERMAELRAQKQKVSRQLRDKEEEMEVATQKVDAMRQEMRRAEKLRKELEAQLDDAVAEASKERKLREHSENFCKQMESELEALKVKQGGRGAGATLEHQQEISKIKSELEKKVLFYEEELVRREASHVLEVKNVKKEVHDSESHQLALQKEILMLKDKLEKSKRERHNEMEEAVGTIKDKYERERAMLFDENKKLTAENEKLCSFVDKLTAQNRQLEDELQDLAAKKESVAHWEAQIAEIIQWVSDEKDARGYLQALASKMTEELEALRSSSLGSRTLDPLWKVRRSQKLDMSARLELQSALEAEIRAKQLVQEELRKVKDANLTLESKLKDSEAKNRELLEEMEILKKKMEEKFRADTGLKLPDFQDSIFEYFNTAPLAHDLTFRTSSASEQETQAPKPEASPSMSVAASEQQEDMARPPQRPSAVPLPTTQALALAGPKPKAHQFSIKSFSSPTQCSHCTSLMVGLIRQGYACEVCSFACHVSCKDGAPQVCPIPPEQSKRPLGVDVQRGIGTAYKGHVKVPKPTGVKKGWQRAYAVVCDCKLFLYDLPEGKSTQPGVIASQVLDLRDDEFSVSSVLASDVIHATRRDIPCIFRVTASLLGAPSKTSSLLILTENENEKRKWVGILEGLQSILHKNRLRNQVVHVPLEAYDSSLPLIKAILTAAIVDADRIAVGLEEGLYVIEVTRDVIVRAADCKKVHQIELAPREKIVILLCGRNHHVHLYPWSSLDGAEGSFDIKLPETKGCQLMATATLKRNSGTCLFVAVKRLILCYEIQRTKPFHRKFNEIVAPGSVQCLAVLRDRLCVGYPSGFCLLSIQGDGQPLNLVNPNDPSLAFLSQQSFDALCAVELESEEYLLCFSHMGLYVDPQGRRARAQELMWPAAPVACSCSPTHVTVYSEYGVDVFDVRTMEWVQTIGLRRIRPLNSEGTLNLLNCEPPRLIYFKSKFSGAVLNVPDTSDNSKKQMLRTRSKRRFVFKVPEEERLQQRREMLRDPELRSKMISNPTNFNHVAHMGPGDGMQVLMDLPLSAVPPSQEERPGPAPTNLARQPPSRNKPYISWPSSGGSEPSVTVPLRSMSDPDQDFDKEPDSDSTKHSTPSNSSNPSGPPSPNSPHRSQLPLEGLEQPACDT
Text: as §1

[14] = target: T6, MST2 (Homo sapiens, UniProt Q13188)
T6 construct: gene STK3
T6 sequence (Q13188 whole entry): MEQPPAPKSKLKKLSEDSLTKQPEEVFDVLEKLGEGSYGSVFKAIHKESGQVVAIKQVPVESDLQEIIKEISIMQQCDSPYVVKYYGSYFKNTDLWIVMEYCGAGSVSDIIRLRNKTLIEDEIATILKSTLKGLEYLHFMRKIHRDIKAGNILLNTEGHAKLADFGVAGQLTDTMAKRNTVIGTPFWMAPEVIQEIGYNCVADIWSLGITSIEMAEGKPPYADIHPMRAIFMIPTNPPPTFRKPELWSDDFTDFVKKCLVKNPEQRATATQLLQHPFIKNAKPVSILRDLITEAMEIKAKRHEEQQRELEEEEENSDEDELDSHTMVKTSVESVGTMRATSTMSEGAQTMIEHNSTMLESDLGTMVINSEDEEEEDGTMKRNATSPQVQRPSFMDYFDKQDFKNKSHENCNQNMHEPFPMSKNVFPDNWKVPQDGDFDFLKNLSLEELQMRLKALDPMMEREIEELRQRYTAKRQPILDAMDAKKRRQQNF
Text: as §1

[15] = target: T7, PCTK2 (Homo sapiens, UniProt Q00537)
T7 construct: gene CDK17
Text: as §1

[16] = target: T8, PIK4CB (Homo sapiens, UniProt Q9UBF8)
T8 construct: gene PI4KB
Text: as §1

[17] = target: PKMYT1 (Homo sapiens, UniProt Q99640)
Sequence of PKMYT1 (Q99640 whole entry): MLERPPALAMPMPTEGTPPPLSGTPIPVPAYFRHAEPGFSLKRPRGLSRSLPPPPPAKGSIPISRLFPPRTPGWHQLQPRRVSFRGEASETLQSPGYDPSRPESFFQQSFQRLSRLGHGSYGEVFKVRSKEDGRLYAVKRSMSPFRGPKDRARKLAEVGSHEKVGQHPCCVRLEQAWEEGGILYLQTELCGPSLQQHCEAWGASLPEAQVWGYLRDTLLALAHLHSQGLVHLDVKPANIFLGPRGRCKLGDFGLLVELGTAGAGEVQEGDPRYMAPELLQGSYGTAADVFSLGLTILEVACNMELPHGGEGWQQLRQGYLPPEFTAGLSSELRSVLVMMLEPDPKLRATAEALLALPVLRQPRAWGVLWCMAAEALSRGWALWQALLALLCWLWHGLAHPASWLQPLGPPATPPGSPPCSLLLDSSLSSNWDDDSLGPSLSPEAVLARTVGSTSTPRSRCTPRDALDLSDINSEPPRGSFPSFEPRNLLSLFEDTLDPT
Text: as §1

[18] = target: PRKCQ (Homo sapiens, UniProt Q04759)
Sequence of PRKCQ (Q04759 whole entry): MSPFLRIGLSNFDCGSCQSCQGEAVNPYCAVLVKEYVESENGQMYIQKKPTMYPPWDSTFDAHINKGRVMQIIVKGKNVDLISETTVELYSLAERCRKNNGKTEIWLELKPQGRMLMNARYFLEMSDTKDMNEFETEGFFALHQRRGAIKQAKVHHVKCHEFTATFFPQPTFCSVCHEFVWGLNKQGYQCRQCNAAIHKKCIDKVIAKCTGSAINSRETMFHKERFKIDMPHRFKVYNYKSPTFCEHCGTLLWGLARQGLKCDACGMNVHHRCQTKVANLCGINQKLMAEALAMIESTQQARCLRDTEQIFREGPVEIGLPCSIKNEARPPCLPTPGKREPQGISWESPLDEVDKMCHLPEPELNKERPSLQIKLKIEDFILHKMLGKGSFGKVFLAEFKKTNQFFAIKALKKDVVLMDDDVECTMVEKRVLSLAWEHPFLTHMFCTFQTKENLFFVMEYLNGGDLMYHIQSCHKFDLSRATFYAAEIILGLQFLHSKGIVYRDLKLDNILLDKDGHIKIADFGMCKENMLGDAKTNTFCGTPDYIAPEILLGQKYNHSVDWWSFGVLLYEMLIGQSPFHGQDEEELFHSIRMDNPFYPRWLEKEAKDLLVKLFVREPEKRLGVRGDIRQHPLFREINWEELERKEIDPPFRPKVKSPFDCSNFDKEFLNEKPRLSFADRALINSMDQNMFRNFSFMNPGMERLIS
Text: as §1

[19] = target: PRKD2 (Homo sapiens, UniProt Q9BZL6)
Text: as §1

[20] = target: RIPK4 (Homo sapiens, UniProt P57078)
Sequence of RIPK4 (P57078 whole entry): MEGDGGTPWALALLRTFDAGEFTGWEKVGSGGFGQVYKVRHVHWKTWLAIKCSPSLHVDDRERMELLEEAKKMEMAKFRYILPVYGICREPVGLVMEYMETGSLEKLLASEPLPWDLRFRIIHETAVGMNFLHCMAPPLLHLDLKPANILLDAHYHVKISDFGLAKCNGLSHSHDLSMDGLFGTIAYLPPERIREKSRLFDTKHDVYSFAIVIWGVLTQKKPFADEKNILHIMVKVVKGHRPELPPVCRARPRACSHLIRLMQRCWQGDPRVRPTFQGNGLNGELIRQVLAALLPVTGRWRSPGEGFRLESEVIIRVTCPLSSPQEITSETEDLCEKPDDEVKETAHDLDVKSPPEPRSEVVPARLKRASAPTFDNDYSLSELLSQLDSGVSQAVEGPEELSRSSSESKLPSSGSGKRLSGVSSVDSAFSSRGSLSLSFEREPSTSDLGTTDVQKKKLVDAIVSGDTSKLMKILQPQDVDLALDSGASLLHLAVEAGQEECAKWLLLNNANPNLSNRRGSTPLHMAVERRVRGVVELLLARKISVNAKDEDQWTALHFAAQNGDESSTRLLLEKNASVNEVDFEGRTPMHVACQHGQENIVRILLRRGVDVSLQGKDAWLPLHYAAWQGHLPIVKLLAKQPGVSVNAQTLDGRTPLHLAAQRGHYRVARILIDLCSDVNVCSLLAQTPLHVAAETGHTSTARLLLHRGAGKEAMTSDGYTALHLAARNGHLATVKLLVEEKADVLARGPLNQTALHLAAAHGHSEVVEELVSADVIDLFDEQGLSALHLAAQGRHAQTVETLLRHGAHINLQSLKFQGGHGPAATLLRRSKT
Text: as §1

[21] = target: T9, RPS6KA5(Kin.Dom.1-N-terminal) (Homo sapiens, UniProt O75582)
T9 construct: Kin.Dom.1-N-terminal
Text: as §1

[22] = target: SGK2 (Homo sapiens, UniProt Q9HBY8)
Text: as §1

[23] = target: T10, SNARK (Homo sapiens, UniProt Q9H093)
T10 construct: gene NUAK2
Text: as §1

[24] = target: SRMS (Homo sapiens, UniProt Q9H3Y6)
Text: as §1

[25] = target: SYK (Homo sapiens, UniProt P43405)
Text: as §1

SMILES: C=CC(=O)Nc1cc(-n2c(=O)ccc3cnc4ccc(-n5cccn5)cc4c32)ccc1C [CHMFL-BTK-11]
- remaining binding at 1 µM [1]: 88%
- remaining binding at 1 µM [2]: 100%
- remaining binding at 1 µM [3]: 91%
- remaining binding at 1 µM [4]: 90%
- remaining binding at 1 µM [5]: 100%
- remaining binding at 1 µM [6]: 90%
- remaining binding at 1 µM [7]: 94%
- remaining binding at 1 µM [8]: 100%
- remaining binding at 1 µM [9]: 86%
- remaining binding at 1 µM [10]: 87%
- remaining binding at 1 µM [11]: 100%
- remaining binding at 1 µM [12]: 98%
- remaining binding at 1 µM [13]: 100%
- remaining binding at 1 µM [14]: 97%
- remaining binding at 1 µM [15]: 94%
- remaining binding at 1 µM [16]: 100%
- remaining binding at 1 µM [17]: 94%
- remaining binding at 1 µM [18]: 100%
- remaining binding at 1 µM [19]: 100%
- remaining binding at 1 µM [20]: 100%
- remaining binding at 1 µM [21]: 94%
- remaining binding at 1 µM [22]: 85%
- remaining binding at 1 µM [23]: 90%
- remaining binding at 1 µM [24]: 88%
- remaining binding at 1 µM [25]: 93%
